Test results from ChEMBL document CHEMBL1151999, “3-Lithioquinuclidin-2-ene: A novel intermediate for the synthesis of muscarinic agonists and antagonists” (Bioorg Med Chem Lett, 1994).

Columns and labels:
[1] = biological target: Muscarinic acetylcholine receptor; assay: In vitro binding affinity towards muscarinic receptor in urinary bladder was determined; format: protein assay, Cavia porcellus
[2] = biological target: T1, Muscarinic acetylcholine receptor M2 (Homo sapiens, UniProt P08172); assay: In vitro binding affinity towards muscarinic receptor in heart (M2) was determined
T1 sequence (P08172 whole entry): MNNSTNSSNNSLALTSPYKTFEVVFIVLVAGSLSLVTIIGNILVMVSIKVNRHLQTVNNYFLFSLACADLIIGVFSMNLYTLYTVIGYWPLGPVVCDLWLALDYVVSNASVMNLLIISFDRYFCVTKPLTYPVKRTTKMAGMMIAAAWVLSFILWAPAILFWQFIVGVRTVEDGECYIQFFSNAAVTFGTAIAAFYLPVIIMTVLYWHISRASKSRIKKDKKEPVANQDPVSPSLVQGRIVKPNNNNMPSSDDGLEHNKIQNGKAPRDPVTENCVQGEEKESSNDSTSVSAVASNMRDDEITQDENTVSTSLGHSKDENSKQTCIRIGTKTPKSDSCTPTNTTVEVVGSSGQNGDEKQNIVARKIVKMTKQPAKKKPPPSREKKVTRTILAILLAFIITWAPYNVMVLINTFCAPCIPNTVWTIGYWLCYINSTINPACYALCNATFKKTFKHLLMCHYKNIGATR

[3] = biological target: Muscarinic acetylcholine receptor M3 (Homo sapiens, UniProt P20309); assay: In vitro binding affinity towards muscarinic receptor in parotid gland (M3); format: tissue-based
[4] = biological target: T2, Muscarinic acetylcholine receptor M1 (Homo sapiens, UniProt P11229); assay: In vitro binding affinity towards muscarinic receptor in cerebral cortex (M1) was determined; format: tissue-based
T2 sequence (P11229 whole entry): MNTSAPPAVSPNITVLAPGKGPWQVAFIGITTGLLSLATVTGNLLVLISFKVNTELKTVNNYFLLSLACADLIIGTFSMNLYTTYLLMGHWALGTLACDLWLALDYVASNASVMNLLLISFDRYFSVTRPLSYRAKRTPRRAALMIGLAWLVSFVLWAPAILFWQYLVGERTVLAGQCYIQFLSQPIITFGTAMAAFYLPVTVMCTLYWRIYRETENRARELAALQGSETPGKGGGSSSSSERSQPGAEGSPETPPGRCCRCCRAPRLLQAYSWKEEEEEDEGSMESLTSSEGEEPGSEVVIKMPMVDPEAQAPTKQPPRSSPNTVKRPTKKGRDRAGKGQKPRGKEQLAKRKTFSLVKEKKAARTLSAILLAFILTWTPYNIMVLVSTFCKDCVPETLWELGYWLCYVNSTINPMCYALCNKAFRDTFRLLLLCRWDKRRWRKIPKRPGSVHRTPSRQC

[5] = biological target: Muscarinic acetylcholine receptor (Cavia porcellus); assay: Binding affinity towards muscarinic receptor in urinary bladder was determined

Chain of Muscarinic acetylcholine receptor M3 (P20309 whole entry): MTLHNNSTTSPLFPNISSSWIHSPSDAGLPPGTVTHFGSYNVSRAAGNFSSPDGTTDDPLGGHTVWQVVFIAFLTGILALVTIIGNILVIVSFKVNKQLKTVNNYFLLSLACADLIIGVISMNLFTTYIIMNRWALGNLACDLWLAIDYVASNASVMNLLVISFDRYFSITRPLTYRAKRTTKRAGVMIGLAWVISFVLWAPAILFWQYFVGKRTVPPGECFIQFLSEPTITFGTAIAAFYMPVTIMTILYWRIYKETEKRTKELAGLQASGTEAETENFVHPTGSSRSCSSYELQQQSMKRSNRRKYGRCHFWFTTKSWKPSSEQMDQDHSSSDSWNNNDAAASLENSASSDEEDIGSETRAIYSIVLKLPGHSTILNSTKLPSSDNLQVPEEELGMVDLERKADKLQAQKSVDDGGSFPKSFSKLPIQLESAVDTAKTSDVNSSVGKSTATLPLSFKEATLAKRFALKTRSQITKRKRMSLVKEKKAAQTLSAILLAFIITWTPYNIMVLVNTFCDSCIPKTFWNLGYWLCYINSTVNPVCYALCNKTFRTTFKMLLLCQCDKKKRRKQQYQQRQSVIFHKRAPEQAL

Row | Ki [1] | Ki [2] | Ki [3] | Ki [4] | SMILES | Kb [5]
1 | 2500 nM | 2200 nM | 1500 nM | 330 nM | COc1ccccc1C(O)C1=CN2CCC1CC2 (configuration not stated) | 450 nM
2 | > 5000 nM | > 5000 nM | > 5000 nM | > 5000 nM | OC1(C2=CN3CCC2CC3)c2ccccc2-c2ccccc21 | –
3 | 8000 nM | 2400 nM | 6900 nM | 2040 nM | OC1(C2=CN3CCC2CC3)c2ccccc2CCc2ccccc21 | –
4 | – | > 8000 nM | 17000 nM | > 8000 nM | OC1(C2=CN3CCC2CC3)c2ccccc2Oc2ccccc21 | –

Second part, the compound before the results:

Row | SMILES | Ki [1] | Ki [2] | Ki [3] | Ki [4] | Kb [5]
5 | CC(=O)c1ccc(C2=CN3CCC2CC3)s1 | 2600 nM | 1550 nM | 2600 nM | 480 nM | –
6 | c1ccc2c(c1)C(=C1CN3CCC1CC3)c1ccccc1-2 | 249 nM | 98 nM | 100 nM | 50 nM | 370 nM
7 | O=Cc1ccc(C2=CN3CCC2CC3)s1 | 5700 nM | 2600 nM | 4800 nM | 990 nM | –
8 | OC1(C2=CN3CCC2CC3)c2ccccc2C=Cc2ccccc21 | – | > 200 nM | > 200 nM | > 200 nM | –
